Experiment [1] concerns the target T1, μ-opioid receptors (Homo sapiens (Human), UniProt P35372). In words: μ-opioid receptor [35S]GTPγS functional assay, HEK-293 cells. As to conditions: μ GTP; for EC50: read-out: Activity Response μ EC50 (nM) [mean ± SEM]; for Emax: relative to DAMGO, read-out: Activity Response μ Emax (%). It is filed as biochemical. As for the experimental part:
[^35S]GTPγS functional assays were conducted using freshly thawed μ-receptor membranes prepared from a cell line expressing recombinant μ opioid receptor in a HEK-293, CHO or U-2 OS cell background or purchased from a commercial source (Perkin Elmer, Shelton, Conn.; or DiscovRx, Fremont, Calif.). Assay reactions were prepared by sequentially adding the following reagents to binding buffer (100 mM NaCl, 10 mM MgCl2, 20 mM HEPES, pH 7.4) on ice (final concentrations indicated): membrane protein (0.026 mg/mL), saponin ([…]), GDP ([…]) and [^35S]GTPγS (0.20 nM; Perkin Elmer, Shelton, Conn.). The prepared membrane solution (190 μl/well) was transferred to 96-shallow well polypropylene plates containing 10 μl of 20× concentrated stock solutions of the agonist [D-Ala^2, N-methyl-Phe^4 Gly-ol^5]-enkephalin (DAMGO) prepared in dimethyl sulfoxide (DMSO). Plates were incubated for 30 min at about 25° C. with shaking. Reactions were terminated by rapid filtration onto 96-well Unifilter GF/B filter plates (Perkin Elmer, Shelton, Conn.) using a 96-well tissue harvester (Perkin Elmer, Shelton, Conn.) followed by three filtration washes with 200 μl of ice-cold wash buffer (10 mM NaH2PO4, 10 mM Na2HPO4, pH 7.4). Filter plates were subsequently dried at 50° C. for 2-3 hours. BetaScint scintillation cocktail (Perkin Elmer, Shelton, Conn.) was added (50 μl/well) and plates were counted using a Packard Top-Count for 1 min/well. Data were analyzed using the sigmoidal dose-response curve fitting functions in GraphPad PRISM v. 3.0, or an in-house function for non-linear, sigmoidal dose-response curve-fitting.
μ GTP EC50 is the concentration of a compound providing 50% of the maximal response for the compound at a μ-opioid receptor.
μ GTP Emax (%) is the maximal effect elicited by a compound relative to the effect elicited by DAMGO, a standard μ agonist. Generally, the μ GTP Emax (%) value measures the efficacy of a compound to treat or prevent pain or other Conditions.
(§1) The following tables provide results on the efficacy of binding and activity response of exemplified Compounds of the Invention at the μ- and κ-opioid receptors. In TABLE 3, binding affinity of certain Compounds of the Invention to the μ- and κ-opioid receptors was determined as described above. In TABLE 4, activity response of certain Compounds of the Invention to the μ- and κ-opioid receptors was determined as described above for functional assays using HEK-293 cells. In TABLE 5, activity response of certain Compounds of the Invention to the μ- and κ-opioid receptors was determined as described above using U-2 OS cells.
A general note: GTPγS is a poorly hydrolysed GTP analogue; its binding reports G protein activation.

Experiment [2] has as its target T2, κ opioid receptor (Homo sapiens (Human), UniProt P41145). In words: κ-opioid receptor [35S]GTPγS functional assay, HEK-293 cells. It is filed as biochemical. The following applies: κ GTP; for EC50: read-out: Activity Response κ EC50 (nM) [mean ± SEM]; for Emax: relative to U69,593, read-out: Activity Response κ Emax (%). As for the experimental part:
(§2) Membranes from HEK-293 cells, CHO or U-2 OS cells expressing the recombinant human kappa opioid receptor (κ) were prepared by lysing cells in ice cold hypotonic buffer (2.5 mM MgCl2, 50 mM HEPES, pH 7.4) (10 mL/10 cm dish) followed by homogenization with a tissue grinder/Teflon pestle. Membranes were collected by centrifugation at 30,000×g for 15 min at 4° C. and pellets were resuspended in hypotonic buffer to a final concentration of 1-3 mg/mL. Protein concentrations were determined using the BioRad protein assay reagent with bovine serum albumen as standard. Aliquots of κ receptor membranes were stored at −80° C.
Functional [^35S]GTPγS binding assays were conducted as follows. κ opioid receptor membrane solution was prepared by sequentially adding final concentrations of 0.026 μg/μl κ membrane protein (in-house), 10 μg/mL saponin, 3 μM GDP and 0.20 nM [^35S]GTPγS to binding buffer (100 mM NaCl, 10 mM MgCl2, 20 mM HEPES, pH 7.4) on ice. The prepared membrane solution (190 μl/well) was transferred to 96-shallow well polypropylene plates containing 10 μl of 20× concentrated stock solutions of agonist prepared in DMSO. Plates were incubated for 30 min at a temperature of about 25° C. with shaking. Reactions were terminated by rapid filtration onto 96-well Unifilter GF/B filter plates (Perkin Elmer, Shelton, Conn.) using a 96-well tissue harvester (Packard) and followed by three filtration washes with 200 μl ice-cold binding buffer (10 mM NaH2PO4, 10 mM Na2HPO4, pH 7.4). Filter plates were subsequently dried at 50° C. for 2-3 hours. Fifty μl/well scintillation cocktail (Perkin Elmer, Shelton, Conn.) was added and plates were counted in a Packard Top-Count for 1 min/well.
κ GTP EC50 is the concentration of a compound providing 50% of the maximal response for the compound at a κ receptor.
κ GTP Emax (%) is the maximal effect elicited by a compound relative to the effect elicited by U69,593.
In TABLE 3, binding affinity of certain Compounds of the Invention to the μ- and κ-opioid receptors was determined as described above. In TABLE 4, activity response of certain Compounds of the Invention to the μ- and κ-opioid receptors was determined as described above for functional assays using HEK-293 cells. In TABLE 5, activity response of certain Compounds of the Invention to the μ- and κ-opioid receptors was determined as described above using U-2 OS cells.

The target in experiment [3] is recombinant human kappa opioid receptor (κ) (Homo sapiens (Human), UniProt P41145). In words: κ-opioid receptor radioligand dose displacement binding assay ([3H]-U69,593). As to conditions: mean ± SEM, read-out: Binding Affinity Opioid Receptor Ki (nM) [mean ± SEM] κ. On the procedure:
as §2
Radioligand dose displacement assays used 0.4 nM [^3H]-U69,593 (GE Healthcare, Piscataway, N.J.; 40 Ci/mmole) with 15 μg membrane protein (recombinant κ opioid receptor expressed in HEK 293 cells; in-house prep) in a final volume of 200 μl binding buffer (5% DMSO, 50 mM Trizma base, pH 7.4). Non-specific binding was determined in the presence of 10 μM unlabeled naloxone or U69,593. All reactions were performed in 96-well polypropylene plates for 1 hour at a temperature of about 25° C. Binding reactions were terminated by rapid filtration onto 96-well Unifilter GF/C filter plates (Perkin Elmer, Shelton, Conn.) presoaked in 0.5% polyethylenimine (Sigma). Harvesting was performed using a 96-well tissue harvester (Perkin Elmer, Shelton, Conn.) followed by five filtration washes with 200 μl ice-cold binding buffer. Filter plates were subsequently dried at 50° C. for 1-2 hours. Fifty μl/well scintillation cocktail (Perkin Elmer, Shelton, Conn.) was added and plates were counted in a Packard Top-Count for 1 min/well.
as §1

The target of experiment [4] is T2, κ opioid receptor. In words: κ-opioid receptor [35S]GTPγS functional assay, U-2 OS cells. It is filed as biochemical. The following applies: κ GTP; for EC50: read-out: Activity Response κ EC50 (nM) [mean ± SEM]; for Emax: relative to U69,593, read-out: Activity Response κ Emax (%).
In experiment [5] the target is T1, μ-opioid receptors. In words: μ-opioid receptor [35S]GTPγS functional assay, U-2 OS cells. It is filed as biochemical. As to conditions: μ GTP; for EC50: read-out: Activity Response μ EC50 (nM) [mean ± SEM]; for Emax: relative to DAMGO, read-out: Activity Response μ Emax (%).

Some results are limits rather than exact numbers.

Broadly, the EC50 is the concentration at which the effect is half-maximal. In general, Emax refers to the greatest response seen or fitted, relative to the assay's reference. The term Ki denotes a dissociation constant, usually derived from enzyme kinetics or from competition with a known ligand. With `CCOC(=O)C[C@H]1C[C@@]2(O)[C@H]3Cc4ccc(OC)cc4[C@@]2(CCN3CC2CC2)CC1=O` [Compound 1, ethyl 2-((4bR,7R,8aS,9R)-11-(cyclopropylmethyl)-8a-hydroxy-3-methoxy-6-oxo-6,7,8,8a,9,10-hexahydro-5H-9,4b-(epiminoethano)phenanthren-7-yl)acetate], at μ-opioid receptors [1], the EC50 worked out at 3400 ± 584 nM and the Emax came out at 59.3 ± 3.38%. Besides, at κ opioid receptor [2], the half-maximal effective concentration (EC50) was found to be 5110 ± 1260 nM and the Emax came to 72 ± 3.21%. Further, in experiment [3], the inhibitory constant (Ki) stood at 408 ± 34.1 nM.
In the case of `COc1ccc2c(c1)[C@]13CCN(CC4CC4)[C@H](C2)[C@]1(O)C[C@H](CC(=O)O)C(=O)C3` [Compound 8, 2-((4bR,7R,8aS,9R)-11-(cyclopropylmethyl)-8a-hydroxy-3-methoxy-6-oxo-6,7,8,8a,9,10-hexahydro-5H-9,4b-(epiminoethano)phenanthren-7-yl)acetic acid], the EC50 on μ-opioid receptors [1] amounted to 703 ± 72 nM; at κ opioid receptor [2], 4440 ± 679 nM. Moreover, the Emax at μ-opioid receptors [1] turned out to be 59.7 ± 8.69%; at κ opioid receptor [2] it was 66.7 ± 6.84%. In addition, the inhibition constant (Ki) in experiment [3] stood at 261 ± 97.3 nM.
As for `COc1ccc2c(c1)[C@]13CCN(CC4CC4)[C@H](C2)[C@]1(O)CC(CC(=O)O)(CC(=O)O)C(=O)C3` [Compound 10, 2,2′-((4bR,8aS,9R)-11-(cyclopropylmethyl)-8a-hydroxy-3-methoxy-6-oxo-6,7,8,8a,9,10-hexahydro-5H-9,4b-(epiminoethano)phenanthrene-7,7-diyl)diacetic acid], at μ-opioid receptors [1], the EC50 came to 14700 ± 1530 nM and the maximum response (Emax) worked out at 16 ± 2.65%. Further, in experiment [3], the Ki was greater than 20000 nM.
For the compound `O=C(O)CC1(CC(=O)O)C[C@@]2(O)[C@H]3Cc4ccc(O)cc4[C@@]2(CCN3CC2CC2)CC1=O` [Compound 12, 2,2′-((4bR,8aS,9R)-11-(cyclopropylmethyl)-3,8a-dihydroxy-6-oxo-6,7,8,8a,9,10-hexahydro-5H-9,4b-(epiminoethano)phenanthrene-7,7-diyl)diacetic acid], at μ-opioid receptors [1], the EC50 is greater than 200000 nM. In experiment [3], the inhibition constant (Ki) worked out at 3410 ± 538 nM.
On to `COc1ccc2c(c1)[C@]13CCN(CC4CC4)[C@H](C2)[C@]1(O)C[C@H](CC(=O)N[C@@H](C)C(=O)O)C(=O)C3` [Compound 13, (S)-2-(2-((4bR,7R,8aS,9R)-11-(cyclopropylmethyl)-8a-hydroxy-3-methoxy-6-oxo-6,7,8,8a,9,10-hexahydro-5H-9,4b-(epiminoethano)phenanthren-7-yl)acetamido)propanoic acid], for which, at μ-opioid receptors [1], the 50% effective concentration (EC50) was determined as 4600 ± 471 nM and the Emax amounted to 66 ± 2.65%. Further, in experiment [3], the inhibitory constant (Ki) is greater than 20000 nM.
For the compound `COc1ccc2c(c1)[C@]13CCN(CC4CC4)[C@H](C2)[C@]1(O)C[C@H](CC(=O)N1CCC[C@H]1C(=O)O)C(=O)C3` [Compound 16, (S)-1-(2-((4bR,7R,8aS,9R)-11-(cyclopropylmethyl)-8a-hydroxy-3-methoxy-6-oxo-6,7,8,8a,9,10-hexahydro-5H-9,4b-(epiminoethano)phenanthren-7-yl)acetyl)pyrrolidine-2-carboxylic acid], on μ-opioid receptors [1], the concentration for a half-maximal effect (EC50) turned out to be 6770 ± 1370 nM and the Emax came to 28.7 ± 1.86%. For the same compound, the inhibition constant (Ki) in experiment [3] is greater than 20000 nM.
As for `COc1ccc2c(c1)[C@]13CCN(CC4CC4)[C@H](C2)[C@]1(O)C[C@H](CC(=O)N[C@@H](CC(C)C)C(=O)O)C(=O)C3` [Compound 18, (S)-2-(2-((4bR,7R,8aS,9R)-11-(cyclopropylmethyl)-8a-hydroxy-3-methoxy-6-oxo-6,7,8,8a,9,10-hexahydro-5H-9,4b-(epiminoethano)phenanthren-7-yl)acetamido)-4-methylpentanoic acid], on μ-opioid receptors [1], the concentration giving a half-maximal response (EC50) came out at 2750 ± 221 nM and the Emax worked out at 50 ± 1.53%. Also, in experiment [3], the inhibition constant (Ki) was 15900 nM.
With `O=C1C[C@]23CCN(CC4CC4)[C@H](Cc4ccc(O)cc42)[C@]3(O)C[C@@H]1CCO` [Compound 54, (4bR,7S,8aS,9R)-11-(cyclopropylmethyl)-3,8a-dihydroxy-7-(2-hydroxyethyl)-8,8a,9,10-tetrahydro-5H-9,4b-(epiminoethano)phenanthren-6(7H)-one], the concentration for a half-maximal effect (EC50) at κ opioid receptor [4] was 4.82 ± 0.71 nM; at μ-opioid receptors [5], 1.81 ± 0.57 nM; on μ-opioid receptors [1], 14.2 ± 3.39 nM; on κ opioid receptor [2] it was 5.02 ± 0.14 nM. The maximal response (Emax) is 88.2 ± 2.53% on κ opioid receptor [4], 26.3 ± 2.33% on μ-opioid receptors [5], 25 ± 2.04% on μ-opioid receptors [1] and 34.3 ± 0.67% on κ opioid receptor [2].
For `CC(C)CC[C@H]1C[C@@]2(O)[C@H]3Cc4ccc(O)cc4[C@@]2(CCN3CC2CC2)CC1=O` [Compound 64, (4bR,7S,8aS,9R)-11-(cyclopropylmethyl)-3,8a-dihydroxy-7-isopentyl-8,8a,9,10-tetrahydro-5H-9,4b-(epiminoethano)phenanthren-6(7H)-one], the EC50 on κ opioid receptor [4] is 4.71 ± 0.12 nM; at μ-opioid receptors [5], greater than 200000 nM; on μ-opioid receptors [1] it was greater than 200000 nM; on κ opioid receptor [2] it was 4.3 ± 1.55 nM. The Emax on κ opioid receptor [4] came out at 87.3 ± 2.6%; at μ-opioid receptors [5] it was 7.5%; at μ-opioid receptors [1], 1%; at κ opioid receptor [2], 33 ± 1.73%.
With `CN1CC[C@]23CC(=O)[C@@H](CC(=O)NCC4CC4)C[C@@]2(O)[C@H]1Cc1ccc(O)cc13` [Compound 84, N-(cyclopropylmethyl)-2-((4bR,7R,8aS,9R)-3,8a-dihydroxy-11-methyl-6-oxo-6,7,8,8a,9,10-hexahydro-5H-9,4b-(epiminoethano)phenanthren-7-yl)acetamide], at μ-opioid receptors [1], the EC50 is 1260 ± 301 nM and the Emax is 57.7 ± 2.73%.

Source of the values: patent publication US9388162B2, “Substituted morphinans and the use thereof” (Purdue Pharma L.P., priority 2012, dated 2016).
